Patent US11000033B2, “Ketone or oxime compound, and herbicide” (NISSAN CHEMICAL CORPORATION, priority 2014, dated 2021)

Experiments:
Type in all cases: in vivo
[1] = system: Leptochloa chinensis; experiment: Test Example 3: herbicidal effect by foliage application, Wagner pot (symbol D); conditions: application herbicide amount 320 g/ha
Summary of the method: (§1)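 In a shallow-flooded alluvial soil system held at 25–30 °C, plants including rice grew for 14 days and were then sprayed over the foliage with emulsion diluted to a fixed herbicide amount. Visual rating followed at 3 weeks.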

[2] = system: beet; experiment: Test Example 4: effect on crop by soil treatment (symbol f); conditions: application herbicide amount 320 g/ha
Summary of the method: (§2)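 Sterilized diluvial soil, spot sowing, ~1.5 cm soil cover; greenhouse 25–30° C.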

[3] = system: directly sowed rice plant; experiment: Test Example 3: effect on crop by foliage application, Wagner pot (symbol b); conditions: application herbicide amount 320 g/ha
Summary of the method: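 Plants are raised from seed in flooded paddy conditions: water stands 0.1–0.5 cm over alluvial soil, and the pot is kept in a greenhouse at 25–30 °C. Species sown are barnyardgrass (E. crus-galli var. crus-galli), Leptochloa chinensis, Cyperus difformis and rice.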

[4] = system: Echinochloa crus-galli var. crus-galli; experiment: Test Example 3: herbicidal effect by foliage application, Wagner pot (symbol H); conditions: application herbicide amount 320 g/ha
Summary of the method: as §1

[5] = system: Stellaria media; experiment: Test Example 5: herbicidal effect by foliage application, plastic box (symbol P); conditions: 320 g/ha, 3 weeks after application
Summary of the method: (§3)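 Leaf-applied emulsion, water-diluted to a preset herbicide dose, on two-week-old seedlings raised in a 25° C. to 30° C. greenhouse; injury rated at 3 weeks using earlier criteria.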

[6] = system: rapeseed; experiment: Test Example 4: effect on crop by soil treatment (symbol g); conditions: application herbicide amount 320 g/ha
Summary of the method: as §2

[7] = system: Chenopodium album; experiment: Test Example 5: herbicidal effect by foliage application, plastic box (symbol O); conditions: 320 g/ha, 3 weeks after application
Summary of the method: as §3

[8] = system: Chenopodium album; experiment: Test Example 4: herbicidal effect by soil treatment (symbol O); conditions: application herbicide amount 320 g/ha
Summary of the method: (§4)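 Seeds were sown in sterilized diluvial soil, covered with about 1.5 cm of soil, and the soil surface was sprayed with a water-diluted emulsion of the compound at a predetermined rate. Plants grew in a greenhouse at 25° C. to 30° C.; effects were scored visually 3 weeks after application.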

[9] = system: transplanted rice plant; experiment: Test Example 1: effect on crop, application before weed generation in submerged conditions (symbol a); conditions: application herbicide amount 320 g/ha
Summary of the method: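 Rice at 2.5 leaf stage transplanted into submerged soil (4 cm depth) sown with three weed species; herbicide applied before weed emergence.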

[10] = system: Apera spica-venti; experiment: Test Example 5: herbicidal effect by foliage application, plastic box (symbol L); conditions: 320 g/ha, 3 weeks after application
Summary of the method: as §3

[11] = system: Scirpus juncoides; experiment: Test Example 2: herbicidal activity, application during weed generation in submerged conditions (symbol B); conditions: Table 23; application herbicide amount 320 g/ha; grade 0-5 by criteria of Test Example 1
Summary of the method: (§5)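 Compound was applied as a water-diluted emulsion into the standing water of flooded pots (4 cm) once co-sown weeds reached one to two leaves. Greenhouse temperature was 25° C. to 30° C., soil was alluvial, and each species was rated visually after 3 weeks.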

[12] = system: Echinochloa crus-galli var. crus-galli; experiment: Test Example 4: herbicidal effect by soil treatment (symbol H); conditions: application herbicide amount 320 g/ha
Summary of the method: as §4

[13] = system: Monochoria vaginalis; experiment: Test Example 2: herbicidal activity, application during weed generation in submerged conditions (symbol C); conditions: Table 23; application herbicide amount 320 g/ha; grade 0-5 by criteria of Test Example 1
Summary of the method: as §5

[14] = system: Abutilon theophrasti; experiment: Test Example 5: herbicidal effect by foliage application, plastic box (symbol M); conditions: 320 g/ha, 3 weeks after application
Summary of the method: as §3

SMILES	herbicidal effect on D (Leptochloa chinensis), grade 0-5 [1]	Effect on crop grade, f: beet [2]	effect on crop b (directly sowed rice plant), grade 0-5 [3]	herbicidal effect on H (Echinochloa crus-galli var. crus-galli), grade 0-5 [4]	P: Stellaria media, herbicidal effect (criteria of Test Example 1) [5]	Effect on crop grade, g: rapeseed [6]	O: Chenopodium album, herbicidal effect (criteria of Test Example 1) [7]	Herbicidal effect grade, O: Chenopodium album [8]	Effect grade on crop, a: transplanted rice plant [9]	L: Apera spica-venti, herbicidal effect (criteria of Test Example 1) [10]	Herbicidal effect grade, B: Scirpus juncoides [11]	Herbicidal effect grade, H: Echinochloa crus-galli var. crus-galli [12]	Herbicidal effect grade, C: Monochoria vaginalis [13]	M: Abutilon theophrasti, herbicidal effect (criteria of Test Example 1) [14]
CON=C(C)CC1CC(O)=C(c2c(C)cc(-c3ccsc3)cc2C)C1=O (stereo not shown) [6-106]	5 (Herbicidal ratio of 90% or more (almost completely withered))	0 (Herbicidal ratio of 5% or lower (almost no effect))	5 (Herbicidal ratio of 90% or more (almost completely withered))	4 (Herbicidal ratio of 70% or higher and lower than 90%)	3 (Herbicidal ratio of 40% or higher and lower than 70%)	3 (Herbicidal ratio of 40% or higher and lower than 70%)	0 (Herbicidal ratio of 5% or lower (almost no effect))	0 (Herbicidal ratio of 5% or lower (almost no effect))	5 (Herbicidal ratio of 90% or more (almost completely withered))	5 (Herbicidal ratio of 90% or more (almost completely withered))	5 (Herbicidal ratio of 90% or more (almost completely withered))	5 (Herbicidal ratio of 90% or more (almost completely withered))	4 (Herbicidal ratio of 70% or higher and lower than 90%)	0 (Herbicidal ratio of 5% or lower (almost no effect))
CON=C(C)CC1CC(O)=C(c2c(F)cc(-c3ccccc3)cc2OC)C1=O (stereo not shown) [6-107]	5 (Herbicidal ratio of 90% or more (almost completely withered))	1 (Herbicidal ratio of 5% or higher and lower than 20%)	5 (Herbicidal ratio of 90% or more (almost completely withered))	5 (Herbicidal ratio of 90% or more (almost completely withered))	2 (Herbicidal ratio of 20% or higher and lower than 40%)	4 (Herbicidal ratio of 70% or higher and lower than 90%)	4 (Herbicidal ratio of 70% or higher and lower than 90%)	4 (Herbicidal ratio of 70% or higher and lower than 90%)	5 (Herbicidal ratio of 90% or more (almost completely withered))	5 (Herbicidal ratio of 90% or more (almost completely withered))	5 (Herbicidal ratio of 90% or more (almost completely withered))	5 (Herbicidal ratio of 90% or more (almost completely withered))	5 (Herbicidal ratio of 90% or more (almost completely withered))	3 (Herbicidal ratio of 40% or higher and lower than 70%)
CON=C(C)CC1CC(O)=C(c2c(F)cc(C)cc2OC)C1=O (stereo not shown) [6-108]	5 (Herbicidal ratio of 90% or more (almost completely withered))	0 (Herbicidal ratio of 5% or lower (almost no effect))	5 (Herbicidal ratio of 90% or more (almost completely withered))	5 (Herbicidal ratio of 90% or more (almost completely withered))	3 (Herbicidal ratio of 40% or higher and lower than 70%)	4 (Herbicidal ratio of 70% or higher and lower than 90%)	2 (Herbicidal ratio of 20% or higher and lower than 40%)	5 (Herbicidal ratio of 90% or more (almost completely withered))	5 (Herbicidal ratio of 90% or more (almost completely withered))	5 (Herbicidal ratio of 90% or more (almost completely withered))	1 (Herbicidal ratio of 5% or higher and lower than 20%)	5 (Herbicidal ratio of 90% or more (almost completely withered))	2 (Herbicidal ratio of 20% or higher and lower than 40%)	5 (Herbicidal ratio of 90% or more (almost completely withered))
CON=C(C)CC1CC(OC(=O)N(C)C)=C(c2c(C)cc(C)cc2OC)C1=O (stereo not shown) [6-109]	4 (Herbicidal ratio of 70% or higher and lower than 90%)	0 (Herbicidal ratio of 5% or lower (almost no effect))	5 (Herbicidal ratio of 90% or more (almost completely withered))	5 (Herbicidal ratio of 90% or more (almost completely withered))	0 (Herbicidal ratio of 5% or lower (almost no effect))	0 (Herbicidal ratio of 5% or lower (almost no effect))	0 (Herbicidal ratio of 5% or lower (almost no effect))	0 (Herbicidal ratio of 5% or lower (almost no effect))	5 (Herbicidal ratio of 90% or more (almost completely withered))	5 (Herbicidal ratio of 90% or more (almost completely withered))	2 (Herbicidal ratio of 20% or higher and lower than 40%)	5 (Herbicidal ratio of 90% or more (almost completely withered))	2 (Herbicidal ratio of 20% or higher and lower than 40%)	4 (Herbicidal ratio of 70% or higher and lower than 90%)
CON=C(C)CC1CC(OC(=O)N2CCCC2)=C(c2c(C)cc(C)cc2OC)C1=O (stereo not shown) [6-110]	5 (Herbicidal ratio of 90% or more (almost completely withered))	0 (Herbicidal ratio of 5% or lower (almost no effect))	5 (Herbicidal ratio of 90% or more (almost completely withered))	5 (Herbicidal ratio of 90% or more (almost completely withered))	1 (Herbicidal ratio of 5% or higher and lower than 20%)	0 (Herbicidal ratio of 5% or lower (almost no effect))	0 (Herbicidal ratio of 5% or lower (almost no effect))	0 (Herbicidal ratio of 5% or lower (almost no effect))	5 (Herbicidal ratio of 90% or more (almost completely withered))	5 (Herbicidal ratio of 90% or more (almost completely withered))	1 (Herbicidal ratio of 5% or higher and lower than 20%)	5 (Herbicidal ratio of 90% or more (almost completely withered))	0 (Herbicidal ratio of 5% or lower (almost no effect))	4 (Herbicidal ratio of 70% or higher and lower than 90%)
